# Reference: ChEMBL document CHEMBL5537115, “New broad-spectrum and potent antibacterial agents with dual-targeting mechanism: Promoting FtsZ polymerization and disrupting bacterial membranes” (Eur J Med Chem, 2024)
# The source made the active and inactive calls. The rule behind the calls is not given here.
# How the values were obtained:
# Staphylococcus aureus [1] = assay: Bactericidal activity against Staphylococcus aureus ATCC25923 assessed as log reduction in bacterial growth at 0.25 to 0.5 ug/ml measured for 9 to 12 hrs by time-kill assay; type: functional; details: dose 0.25-0.5 µg/ml; time 9-12 hrs
# Escherichia coli [2] = assay: Induction of membrane potential depolarization in Escherichia coli ATCC25922 measured after 20 mins by diSC35 dye based spectroscopy; type: functional, organism-based
# Acinetobacter baumannii [3] = assay: Antibacterial activity against Acinetobacter baumannii ATCC19606 incubated for 18 to 24 hrs; type: functional; details: time 18-24 hrs
# Staphylococcus aureus [4] = assay: Antibacterial activity against methicillin-resistant Staphylococcus aureus ATCC43300 incubated for 18 to 20 hrs; type: functional; details: time 18-20 hrs
# Acinetobacter baumannii [5] = assay: Selectivity ratio of MBC for Acinetobacter baumannii ATCC19606 to MIC for Acinetobacter baumannii ATCC19606; type: functional
# Staphylococcus aureus [6] = assay: Antibacterial activity against erythromycin-susceptible Staphylococcus aureus ATCC25923 incubated for 18 to 24 hrs; type: functional; details: time 18-24 hrs
# Enterococcus faecalis [7] = assay: Antibacterial activity against vancomycin-resistant Enterococcus faecalis ATCC51299 assessed as bacterial growth inhibition incubated for 20 hrs by CLSI based broth microdilution method; type: functional
# Staphylococcus aureus [8] = assay: Induction of morphological change in Staphylococcus aureus ATCC25923 assessed as leakage of cell contents at 16 times MIC incubated for 2 hrs by TEM analysis; type: functional, organism-based
# Staphylococcus aureus [9] = assay: Inhibition of bacterial proliferation of Staphylococcus aureus ATCC25923 at 0.125 ug/ml measured for 24 hrs by time-kill assay; type: functional, organism-based; details: dose 0.125 µg/ml
# Staphylococcus aureus [10] = assay: Induction of resistance development in Staphylococcus aureus ATCC25923 assessed as fold increase in MIC at 0.5 times MIC measured after 32 days by multi-passage resistance assay relative to control; type: functional; details: time 32.0 day
# Escherichia coli [11] = assay: Disruption of inner membrane in Escherichia coli ATCC25922 measured after 12 mins by PI staining based analysis; type: functional, organism-based
# Staphylococcus aureus [12] = assay: Bactericidal activity against Staphylococcus aureus ATCC25923 assessed as log reduction in bacterial growth at 0.125 ug/ml measured for 6 hrs by time-kill assay; type: functional; details: dose 0.125 µg/ml
# [13] = target: T1, Cell division protein FtsZ (Bacillus subtilis) (UniProt A5Z1V5); assay: Induction of FtsZ polymerization in Bacillus subtilis preincubated for 10 mins followed by GTP addition measured upto 30 mins by absorbance based assay; details: dose 2.5-10 µg/ml, time 40.0 min
# T1 sequence (whole entry): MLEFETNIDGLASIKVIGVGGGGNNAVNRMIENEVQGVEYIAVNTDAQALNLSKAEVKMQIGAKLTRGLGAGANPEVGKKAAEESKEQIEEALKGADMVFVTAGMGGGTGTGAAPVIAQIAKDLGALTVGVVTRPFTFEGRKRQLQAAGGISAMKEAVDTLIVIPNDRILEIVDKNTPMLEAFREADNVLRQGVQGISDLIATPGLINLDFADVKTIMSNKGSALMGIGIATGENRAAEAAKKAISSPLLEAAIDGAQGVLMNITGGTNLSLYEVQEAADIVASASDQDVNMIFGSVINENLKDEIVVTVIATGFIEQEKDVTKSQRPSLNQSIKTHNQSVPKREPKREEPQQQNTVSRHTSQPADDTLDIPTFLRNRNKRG
# [14] = Hemolytic activity in mouse erythrocytes at 16 ug/ml incubated for 1 hr by absorbance based assay; type: toxicity, cell-based, Erythrocyte; details: at 16 µg/mL, read-out: Activity
# Bacillus subtilis [15] = assay: Antibacterial activity against penicillin-susceptible Bacillus subtilis ATCC9372 assessed as bacterial growth inhibition incubated for 20 hrs by CLSI based broth microdilution method; type: functional
# Bacillus subtilis [16] = assay: Selectivity ratio of MBC for penicillin-susceptible Bacillus subtilis ATCC9372 to MIC for penicillin-susceptible Bacillus subtilis ATCC9372; type: functional
# Bacillus pumilus = assay: Antibacterial activity against penicillin-susceptible Bacillus pumilus CMCC63202 assessed as bacterial growth inhibition incubated for 20 hrs by CLSI based broth microdilution method; type: functional
# Escherichia coli [17] = assay: Disruption of outer membrane in Escherichia coli ATCC25922 measured after 10 mins by NPN dye based analysis; type: functional, organism-based; details: dose 4-16 µg/ml
# Streptococcus pyogenes [18] = assay: Antibacterial activity against erythromycin-resistant Streptococcus pyogenes 2 clinical isolate assessed as bacterial growth inhibition incubated for 20 hrs by CLSI based broth microdilution method; type: functional
# Escherichia coli [19] = assay: Antibacterial activity against penicillin-susceptible Escherichia coli ATCC25922 assessed as bacterial growth inhibition incubated for 20 hrs by CLSI based broth microdilution method; type: functional
# Staphylococcus aureus [20] = assay: Antibacterial activity against Staphylococcus aureus ATCC25923 infected in Kunming mouse model assessed as bacterial growth reduction at 5 to 25 mg/kg, ip; type: functional, organism-based; details: dose 5-25 mg/kg
# Escherichia coli [21] = assay: Disruption of outer membrane in Escherichia coli ATCC25922 at 16 ug/ml measured after 10 mins by NPN dye based analysis; type: functional, organism-based; details: dose 16.0 µg/ml
# Streptococcus pyogenes [22] = assay: Antibacterial activity against erythromycin-susceptible Streptococcus pyogenes 1 assessed as bacterial growth inhibition incubated for 20 hrs by CLSI based broth microdilution method; type: functional
# Staphylococcus aureus [23] = assay: Antibacterial activity against penicillin-resistant Staphylococcus aureus ATCC31007 assessed as bacterial growth inhibition incubated for 20 hrs by CLSI based broth microdilution method; type: functional
# Escherichia coli [24] = assay: Disruption of inner membrane in Escherichia coli ATCC25922 by PI staining based analysis; type: functional, organism-based; details: time 12.0 min, TDE = time-dependent effect
# Staphylococcus aureus [25] = assay: Antibacterial activity against Staphylococcus aureus clinical isolate assessed as bacterial growth inhibition incubated for 20 hrs by CLSI based broth microdilution method; type: functional
# Klebsiella pneumoniae = assay: Antibacterial activity against Klebsiella pneumoniae ATCC BAA-1902 assessed as bacterial growth inhibition incubated for 20 hrs by CLSI based broth microdilution method; type: functional
# Enterococcus faecium = assay: Antibacterial activity against vancomycin-resistant Enterococcus faecium ATCC51559 assessed as bacterial growth inhibition incubated for 20 hrs by CLSI based broth microdilution method; type: functional
# Staphylococcus aureus [26] = assay: Antibacterial activity against methicillin-resistant Staphylococcus aureus ATCC43300 assessed as bacterial growth inhibition incubated for 20 hrs by CLSI based broth microdilution method; type: functional
# Staphylococcus aureus [27] = assay: Induction of morphological change in Staphylococcus aureus ATCC25923 assessed as loss of bacterial membrane integrity at 16 times MIC incubated for 2 hrs by TEM analysis; type: functional, organism-based
# [28] = test system: Staphylococcus epidermidis; assay: Antibacterial activity against penicillin-resistant Staphylococcus epidermidis clinical isolate assessed as bacterial growth inhibition incubated for 20 hrs by CLSI based broth microdilution method; type: functional
# [29] = target: T1, Cell division protein FtsZ (Bacillus subtilis); assay: Induction of FtsZ polymerization in Bacillus subtilis at 2.5 to 10 ug/ml preincubated with compound followed by GTP addition by absorbance based assay; details: dose 2.5-10 µg/ml, time 40.0 min, TDE = time-dependent effect
# Staphylococcus aureus [30] = assay: Antibacterial activity against erythromycin-susceptible Staphylococcus aureus ATCC25923 assessed as bacterial growth inhibition incubated for 20 hrs by CLSI based broth microdilution method; type: functional
# Enterococcus faecalis [31] = assay: Antibacterial activity against vancomycin-susceptible Enterococcus faecalis ATCC29212 assessed as bacterial growth inhibition incubated for 20 hrs by CLSI based broth microdilution method; type: functional
# Staphylococcus aureus [32] = assay: Disruption of inner membrane in Staphylococcus aureus ATCC25923 at 0.5 ug/ml measured after 12 mins by PI staining based analysis; type: functional, organism-based; details: dose 0.5 µg/ml
structure (smiles),measurement,setting,value
C[n+]1cc(-c2ccccc2)c(/C=C/c2ccc(C(C)(C)C)cc2)cc1-c1ccc(C(C)(C)C)cc1.[I-],Activity,Staphylococcus aureus [1],0 log10CFU/ml
same,Activity,Escherichia coli [2],Dose-Dependent Effect
same,MBC,Acinetobacter baumannii [3],1 µg/mL
same,MBC,Staphylococcus aureus [4],0.5 µg/mL
same,Ratio,Acinetobacter baumannii [5],2
same,MBC,Staphylococcus aureus [6],0.25 µg/mL
same,MIC,Enterococcus faecalis [7],0.5 µg/mL
same,Activity,Staphylococcus aureus [8],Active
same,inhibition,Staphylococcus aureus [9],inactive
same,fold change (FC),Staphylococcus aureus [10],2
same,Activity,Escherichia coli [11],Dose-Dependent Effect
same,Activity,Staphylococcus aureus [12],3.059 log10CFU/ml
same,Activity,[13],Dose-Dependent Effect
same,"hemolysis at 1 h, 16 ug/ml",[14],6.37%
same,MIC,Bacillus subtilis [15],0.125 µg/mL
same,Ratio,Bacillus subtilis [16],2
same,MIC,Bacillus pumilus,0.062 µg/mL
same,Activity,Escherichia coli [17],Dose-Dependent Effect
same,MIC,Streptococcus pyogenes [18],2 µg/mL
same,MIC,Escherichia coli [19],4 µg/mL
same,Activity,Staphylococcus aureus [20],Active
same,Activity,Escherichia coli [21],Active
same,MIC,Streptococcus pyogenes [22],2 µg/mL
same,MIC,Staphylococcus aureus [23],1 µg/mL
same,Activity,Escherichia coli [24],Tde
same,MIC,Staphylococcus aureus [25],0.062 µg/mL
same,MIC,Klebsiella pneumoniae,4 µg/mL
same,MIC,Enterococcus faecium,0.5 µg/mL
same,MIC,Staphylococcus aureus [26],0.125 µg/mL
same,Activity,Staphylococcus aureus [27],Active
same,MIC,[28],0.5 µg/mL
same,Activity,[29],Tde
same,MIC,Staphylococcus aureus [30],0.062 µg/mL
same,MIC,Enterococcus faecalis [31],0.25 µg/mL
same,Activity,Staphylococcus aureus [32],Active
